Source: patent publication US4179467A, “Dopamine hydroxylase inhibiting 2-amino-cyclopent-1-ene-1-thiocarboxylic acid-disulfides” (Richter Gedeon Vegyeszeti Gyar Rt., priority 1976, dated 1979)

Legend:
[1] = system: mice; assay: in vivo
[2] = system: dopamine-β-hydroxylase; assay: Noradrenaline and dopamine levels of the cerebrum (brain) in rats, % of controls; assay type: in vivo, male Wistar rats; conditions: rat, 4 hours
Description: (§1) The dopamine-β-hydroxylase inhibiting effects of the new compounds according to the invention were examined by the following tests:
(§2) The tests were performed on male Wistar rats weighing 150 to 200 g. The dopamine-β-hydroxylase inhibiting effects of the compounds were evaluated by determining the change of noradrenaline, dopamine and adrenaline levels of the cerebrum, heart, spleen and adrenal gland. The serotonine and 5-hydroxy-indolylacetic acid levels of the cerebrum were also determined. The measurements were performed as follows:
(§3) The animals were decapitated, the cerebrum, heart, spleen and adrenal gland were removed quickly, and the organs were frozen by placing them on a metal sheet cooled with dry ice. The frozen organs were stored for a maximum of one night at -20° C.
(§4) The organs were weighed in the frozen state and then homogenized in 5.0 ml of 0.4 N perchloric acid containing 0.05% of EDTA-Naa and 0.1% of Na2 S2 O5. The homogenized mixtures were centrifuged as described above for the treatment of adrenal gland, the supernatants were decanted, and the pH was adjusted to 8.0±0.1 with a 0.1 molar tris buffer containing 20 g/l of NaOH and 25 g/l of EDTA-Na2. 100 mg of prepared Al2 O3 (Anton et al.: J. Pharm. Ther. 138, 360 (1962)) were added to the samples, and the mixtures were shaken mechanically for 20 minutes. Thereafter the Al2 O3 was washed with 2×10 ml of distilled water, and noradrenaline was eluted with 1.0 ml of 0.05 N perchloric acid. 0.5 ml samples of the eluate were used for the determination of noradrenaline. Noradrenaline was determined according to the method of Shellenberger et al. (Anal. Biochem. 39, 356 (1971)), with the following modifications of the basic procedure: 0.5 ml of 0.1 molar Na-K-phosphate buffer, containing 9 g/l of EDTA-Na2, were added to 0.5 ml of the eluate, and the catecholamines (noradrenaline in the examination of heart and spleen and noradrenaline and dopamine in the examination of the cerebrum) were oxidized with 0.1 ml of a 0.1 N iodine solution in 5% potassium iodide. After exactly 2 minutes, oxidation was stopped by adding 0.25 ml of a 2.5% sodium sulfite solution in 4.4 N aqueous sodium hydroxide to the mixture. 2 minutes after the introduction of the alkaline sulfite solution, 0.2 ml of concentrated acetic acid was added to the samples, whereupon the pH decreased to 4.4 to 4.5. Thereafter the samples were placed for 5 minutes in a drying oven heated to 100° C., and then the samples were cooled with ice water. The fluorescency of noradrenaline was measured with an OPTON spectrophotometer at wavelengths of 380 nm (excitation) and 490 nm (emission).
The brains were homogenized in 10 parts by volume of 0.4 N perchloric acid. The homogenized mixture was stored at -20° C. overnight; thereafter it was thawed and centrifuged as described above. A sample of the homogenized mixture corresponding to 0.5 g of brain was removed, the pH of the sample was adjusted to 8.0±0.1 with 0.1 molar tris-buffer of the above composition, and the sample was processed as described above for the determination of the noradrenaline content of heart and spleen, with the difference that 1.5 ml of 0.05 N perchloric acid was used as the eluting agent. 0.5 ml of the eluate was used to determine the noradrenaline and dopamine contents. The measurement was performed as described above, with the difference that samples of 0.5 ml were applied for the recording of the flourescence of noradrenaline. The residue was placed for 50 minutes into a drying oven heated to 100° C., thereafter the sample was cooled with ice water, and the fluorescence of dopamine was recorded at wavelengths of 325 nm (excitation) and 380 nm (emission).
In a further test series the serotonine and 5-hydroxy-indolylacetic acid contents were also determined, in addition to the determination of the noradrenaline and dopamine content, from the same sample. […]

[3] = system: dopamine-β-hydroxylase; assay: Noradrenaline level of heart in rats, % of controls; assay type: in vivo, male Wistar rats; conditions: rat, 4 hours
Description: as §1, §2, §3, §4
(§5) In the tests disulfiram, 2,2-dipyridyl, bis(1-methyl-4-homopiperazinyl-thiocarbonyl)-disulfide, sodium diethyldithiocarbamate and N-phenyl-N'-(2-thiazolyl)-thiourea were used as reference substances. The values indicated in Table 1 are the percentages in relation to the amine levels of the controls measured in the same tests (±standard error). The statistical calculations were performed on a TPA/i type computer, using Student's t test.

[4] = system: dopamine-β-hydroxylase; assay: Adrenaline level of adrenal gland in rats, % of controls; assay type: in vivo, male Wistar rats; conditions: rat, 4 hours
Description: as §1, §2, §3
The adrenal glands were freed from fat and homogenized in 3.0 ml of ice-cold 0.4 N perchloric acid. The homogenized mixtures were centrifuged for 10 minutes at 0° C. with a speed of 3200 r.p.m. using a Janetzky K-70 type centrifuge. 0.05 ml samples were taken from the supernatant, and the adrenaline level was determined directly by the method of Laverty et al. (Anal. Biochem. 22, 269 (1968)).
as §5

[5] = system: serotonine and 5-hydroxy-indolylacetic acid levels of the cerebrum; assay: Serotonine and 5-hydroxy-indolylacetic acid levels of the cerebrum (brain) in rats, % of controls; assay type: in vivo, male Wistar rats
Description: as §2, §3
In a further test series the serotonine and 5-hydroxy-indolylacetic acid contents were also determined, in addition to the determination of the noradrenaline and dopamine content, from the same sample. In this instance the brains were homogenized in 10 ml of 75% ethanol, 0.2 ml of EDTA-Na2 and 5% of ascorbic acid were added to the homogenized mixtures, and the homogenized mixtures were maintained at -20° C. overnight. The mixtures were centrifuged as described above, and 5.0 ml samples of the supernatant were removed. The samples were diluted with equal volumes of distilled water, and poured onto ion exchange columns of 0.5×1.5 cm dimensions, filled with buffered Amberlite CG-30 (200 to 400 mesh). The columns were washed with 5 ml of distilled water followed by 1.0 ml of 0.2 N hydrochloric acid, and the first effluent and the aqueous wash were collected for the determination of 5-hydroxy-indolylacetic acid. Elution was continued with a further 1.2 ml quantity of 0.2 N hydrochloric acid in order to remove noradrenaline, dopamine and serotonine. Samples of 0.3 ml were used for the determinations.
Noradrenaline and dopamine were determined by the method of Shellenberger, modified as described above, whereas serotonine was determined by the method of Curzon et al. (Brit. J. Pharmacol. 39, 653 (1970)). The basic method was modified as follows: A 0.5% solution of ortho-phthal(di)aldehyde in absolute ethanol was diluted with […] hydrochloric acid to 50-fold of its original volume, and 0.6 ml of the resulting 0.01% ortho-phthal(di)aldehyde solution were added immediately to 0.5 ml of the serotonine-containing sample. The sample was placed in a hot water bath for 10 minutes, thereafter cooled with tap water, and the flourescence was recorded at wavelengths of 360 nm (excitation) and 490 nm (emission).
5-Hydroxy-indolylacetic acid was determined from the mixture of the first effluent and the aqueous wash. 10 ml of distilled water and 0.2 ml of concentrated hydrochloric acid were added to the mixture, and the sample was poured onto a 0.8×4.0 cm column filled with Sephadex G-10. The column was washed with 15 ml of 0.1 N hydrochloric acid followed by 1.8 to 2.0 ml of 0.02 N aqueous ammonia, and then 5-hydroxy-indolylacetic acid was eluted with further 2.0 ml of the aqueous ammonia. 0.5 ml samples were used in the measurements, and the determination was performed according to the method of Korf et al. (Biochem. Pharmacol. 20, 659 (1971)).
as §5

[6] = system: dopamine-β-hydroxylase; assay: Noradrenaline level of spleen in rats, % of controls; assay type: in vivo, male Wistar rats; conditions: rat, i.p., 4 hours
Description: as §1
as §2, with “follows: […]” for “follows:”
The organs were weighed in the frozen state and then homogenized in 5.0 ml of 0.4 N perchloric acid containing 0.05% of EDTA-Naa and 0.1% of Na2 S2 O5. […] Noradrenaline was determined according to the method of Shellenberger et al. (Anal. Biochem. 39, 356 (1971)), with the following modifications of the basic procedure: 0.5 ml of 0.1 molar Na-K-phosphate buffer, containing 9 g/l of EDTA-Na2, were added to 0.5 ml of the eluate, and the catecholamines (noradrenaline in the examination of heart and spleen and noradrenaline and dopamine in the examination of the cerebrum) were oxidized with 0.1 ml of a 0.1 N iodine solution in 5% potassium iodide. […] The fluorescency of noradrenaline was measured with an OPTON spectrophotometer at wavelengths of 380 nm (excitation) and 490 nm (emission). […]

[7] = in vivo; conditions: mouse, in vivo, mice
[8] = system: dopamine-β-hydroxylase; conditions: literature, cited from earlier work
[9] = Toxicity, LD50, rats; conditions: rat, in vivo, po
[10] = Toxicity, LD50, rabbits; conditions: rabbit, in vivo, po

Molecule: Chlorofusaric acid
- LD50 ([1]; p.o.): 470 ± 85 mg/kg

Molecule: CCCCNC1=C(C([O-])=S)CCC1.CCCCNC1=C(C([O-])=S)CCC1.[Zn+2] [M-3, 2-(N-butyl)-amino-cyclopent-1-ene-thiocarboxylic acid (zinc salt)]
- Brain DA level (percentages in relation to the controls) ([2]; i.p., 50 mg/kg): 112.2 ± 12.0%
- Brain NA level (percentages in relation to the controls) ([2]; i.p., 50 mg/kg): 85.0 ±9.1%
- Brain DA level (percentages in relation to the controls) ([2]; i.p., 100 mg/kg): 121.3 ± 6.1%
- Brain NA level (percentages in relation to the controls) ([2]; i.p., 100 mg/kg): 73.5 ± 3.2%
- Brain DA level (percentages in relation to the controls) ([2]; p.o., 500 mg/kg): 99.2 ±5.0%
- Brain NA level (percentages in relation to the controls) ([2]; p.o., 500 mg/kg): 98.9 ±2.5%
- Heart NA level (percentages in relation to the controls) ([3]; i.p., 50 mg/kg): 84.5±4.1%
- Heart NA level (percentages in relation to the controls) ([3]; i.p., 100 mg/kg): 91.5 ± 8.1%
- Heart NA level (percentages in relation to the controls) ([3]; p.o., 500 mg/kg): 108.8 ±3.2%
- Adrenal gland adrenaline level (% of controls) ([4]; i.p., 50 mg/kg): 66.3%
- Adrenal gland adrenaline level (% of controls) ([4]; i.p., 100 mg/kg): 60.5 ± 3.6%
- Adrenal gland adrenaline level (% of controls) ([4]; p.o., 500 mg/kg): 100.3 ±8.3%
- LD50 ([1]; i.p.): ~ 450 mg/kg

Molecule: c1ccc(-c2ccccn2)nc1 [2,2-D, 2,2-dipyridyl]
- Brain DA level (percentages in relation to the controls) ([2]; i.p., 37.5 mg/kg): 116%
- Brain NA level (percentages in relation to the controls) ([2]; i.p., 37.5 mg/kg): 79.5%
- Brain DA level (percentages in relation to the controls) ([2]; i.p., 75 mg/kg): 95%
- Brain NA level (percentages in relation to the controls) ([2]; i.p., 75 mg/kg): 41.2%
- response vs control in vivo at 75 mg/kg ([5]; Rattus norvegicus, ip, 4 h, read-out: Brain SE level (percentages in relation to the controls)): 100%
- Heart NA level (percentages in relation to the controls) ([3]; i.p., 37.5 mg/kg): 104%
- Heart NA level (percentages in relation to the controls) ([3]; i.p., 75 mg/kg): 58%
- Spleen NA level (percentages in relation to the controls) ([6]; 37.5 mg/kg): 100%
- Adrenal gland adrenaline level (% of controls) ([4]; i.p., 37.5 mg/kg): 80%
- Adrenal gland adrenaline level (% of controls) ([4]; i.p., 75 mg/kg): 63%
- LD50 ([7]; ip): 280 mg/kg
- dopamine-β-hydroxylase inhibition in vitro, in words ([8]; in vitro conditions): effective under in vitro conditions

Molecule: CCN(CC)C(=S)SSC(=S)N(CC)CC [DS, bis(diethylthiocarbamoyl)-disulfide]
- Brain DA level (percentages in relation to the controls) ([2]; i.p., 200 mg/kg): 111%
- Brain NA level (percentages in relation to the controls) ([2]; i.p., 200 mg/kg): 22.5%
- Brain DA level (percentages in relation to the controls) ([2]; i.p., 400 mg/kg): 112%
- Brain NA level (percentages in relation to the controls) ([2]; i.p., 400 mg/kg): 24.1%
- Brain SE level (percentages in relation to the controls) ([5]; rat, i.p., 200 mg/kg, 4 hours): 122%
- Brain SE level (percentages in relation to the controls) ([5]; rat, i.p., 400 mg/kg, 4 hours): 117%
- Heart NA level (percentages in relation to the controls) ([3]; i.p., 200 mg/kg): 98%
- Heart NA level (percentages in relation to the controls) ([3]; i.p., 400 mg/kg): 102%
- Adrenal gland adrenaline level (% of controls) ([4]; i.p., 200 mg/kg): 52%
- Adrenal gland adrenaline level (% of controls) ([4]; i.p., 400 mg/kg): 66%
- LD50 [9]: 8600 ± 370 mg/kg
- LD50 [10]: 1800 ± 130 mg/kg
- dopamine-β-hydroxylase inhibiting effects, in words ([8]; known compounds): strong dopamine-β-hydroxylase inhibiting effects

Molecule: S=C(Nc1ccccc1)Nc1nccs1 [U-14624, N-phenyl-N'-(2-thiazolyl)-thiourea]
- Brain DA level (percentages in relation to the controls) ([2]; i.p., 200 mg/kg): 121%
- Brain NA level (percentages in relation to the controls) ([2]; i.p., 200 mg/kg): 31.6%
- Brain 5-HIAA level (percentages in relation to the controls) ([5]; rat, i.p., 200 mg/kg, 4 hours): 175%
- Brain SE level (percentages in relation to the controls) ([5]; rat, i.p., 200 mg/kg, 4 hours): 137%
- Heart NA level (percentages in relation to the controls) ([3]; i.p., 200 mg/kg): 106%
- Spleen NA level (percentages in relation to the controls) ([6]; 200 mg/kg): 111%
- Adrenal gland adrenaline level (% of controls) ([4]; i.p., 200 mg/kg): 72%
- LD50 ([7]; ip): ~680 mg/kg
- LD50 ([7]; po): > 1000 mg/kg
